Test system: Mus musculus
Test: In vivo antitumor activity against P-388 leukemia in mice was determined at 25 mg/kg/day level
Assay type: functional

Question: COC1=C2C(N)Cc3cc(OC)c(O)cc3C2C[C@H](O)[C@@H]1O (stereo partly specified) was tested. Which T/C did it give?
Answer: 146%
